Converted amounts (≈) assume the structure as drawn. Where two headings read alike, the source gives them in different places.
Key:
[1] = tested on: HCMV, strain C8805-37 (DHPG resistant); experiment: microbe, parasite or virus in culture; type: cell-based, Human Cytomegalovirus; parameters: TI50 (CD50 ÷ ED50): unit not given beside the values; details: for # Plaques: virus control 11.5 ± 2.1
[2] = Cytotoxicity in plaque reduction assay, CV-1 cells; type: cell-based, African Green Monkey; details: monkey, Table 9B, read-out: CD50 (the source's name)
[3] = in vitro; details: guinea pig, gpe cells
[4] = tested on: HCMV, strain C8704 (DHPG resistant); experiment: microbe, parasite or virus in culture; type: cell-based, Human Cytomegalovirus; parameters: TI50 (CD50 ÷ ED50): unit not given beside the values; details: for # Plaques: virus control 91.0 ± 8.4
[5] = tested on: HCMV, strain AD-169; experiment: Plaque reduction assay, HCMV strain AD-169; type: cell-based, Human Cytomegalovirus; parameters: TI50 (CD50 ÷ ED50): unit not given here; details: for EC50: read-out: ED50 (the source's name)
[6] = tested on: Guinea Pig Cytomegalovirus, Strain 22122; experiment: CPE reduction assay, guinea pig cytomegalovirus in GPE cells; type: cell-based; parameters: TI50 (CD50 ÷ ED50): unit not given here; details: for Average CPE: virus controls 4.0
[7] = Cytotoxicity in plaque reduction assay, Hs68 cells; type: cell-based; details: human, Table 5, previous data, read-out: CD50 (the source's name)
Description: (§1) Cytotoxicity was determined by examination of cells (located away from plaques) in infected wells which had been treated with drug.

[8] = tested on: Varicella-Zoster Virus, strain Oka; experiment: microbe, parasite or virus in culture; type: cell-based; parameters: TI50 (CD50 ÷ ED50): unit not given beside the values
[9] = Cytotoxicity in plaque reduction assay, MRC-5 cells; type: cell-based, human; details: human, mrc-5 cells, read-out: CD50 (the source's name)
Description: as §1

[10] = Human betaherpesvirus 5, MRC5, DHPG 1.0 μg/ml, read-out: % Reduction
[11] = Human betaherpesvirus 5, MRC5, DHPG 3.2 μg/ml, read-out: % Reduction
[12] = Human betaherpesvirus 5, MRC5, DHPG 10 μg/ml, read-out: % Reduction
[13] = Human betaherpesvirus 5, MRC5, DHPG 32 μg/ml, read-out: % Reduction
[14] = Human alphaherpesvirus 3, CV-1, read-out: % Reduction
[15] = Human alphaherpesvirus 3, MRC5, read-out: % Reduction

## Nc1nc(O)c2ncn(COC(CO)CO)c2n1 [DHPG, dihydroxypropoxymethylguanine, reference compound]
[1]; DHPG 1.0 μg/ml
  # Plaques: 13
[1]; DHPG 3.2 μg/ml
  # Plaques: 6.5
[1]; DHPG 10 μg/ml
  # Plaques: 10
[1]; DHPG 32 μg/ml
  # Plaques: 4.5
[1]; [10]
  inhibition at 1 µg/mL: 0%
[1]; [11]
  inhibition at 3.2 µg/mL: 43%
[1]; [12]
  inhibition at 10 µg/mL: 0%
[1]; [13]
  inhibition at 32 µg/mL: 61%
[1]; Human betaherpesvirus 5, MRC5, MRC-5 cells, Table 7, read-out: ED50 (the source's name)
  EC50: 11 µg/mL (≈ 43.1 µM)
[1]; MRC-5 cells, Table 7
  TI50 (CD50 ÷ ED50): > 91
[2]
  CC50: > 10 µg/mL
[3]
  CC50: > 1000 µg/mL
[4]; DHPG 1.0 μg/ml
  # Plaques: 92.5
[4]; DHPG 3.2 μg/ml
  # Plaques: 85
[4]; DHPG 10 μg/ml
  # Plaques: 80
[4]; DHPG 32 μg/ml
  # Plaques: 91
[4]; [10]
  inhibition at 1 µg/mL: 0%
[4]; [11]
  inhibition at 3.2 µg/mL: 0%
[4]; [12]
  inhibition at 10 µg/mL: 0%
[4]; [13]
  inhibition at 32 µg/mL: 41%
[4]; Human betaherpesvirus 5, MRC5, MRC-5 cells, Table 6, read-out: ED50 (the source's name)
  EC50: > 32 µg/mL
[4]; Human betaherpesvirus 5, MRC5, MRC-5 cells, Table 6, read-out: ED50, approximate value in parentheses
  EC50: ~41 µg/mL (≈ 161 µM)
[4]; MRC-5 cells, Table 6
  TI50 (CD50 ÷ ED50): > 24
[5]; Hs-68 cells, Table 5
  TI50 (CD50 ÷ ED50): > 526
[5]; Hs-68 cells, DHPG 1.0 μg/ml, virus control 74.2 ± 8.6
  # Plaques: 68.5
[5]; Hs-68 cells, DHPG 3.2 μg/ml, virus control 74.2 ± 8.6
  # Plaques: 7
[5]; Hs-68 cells, DHPG .32 μg/ml, virus control 74.2 ± 8.6
  # Plaques: 100.5
[5]; Human betaherpesvirus 5, AD169, Hs68, Hs-68 cells, Table 5
  EC50: 1.9 µg/mL (≈ 7.44 µM)
[5]; Human betaherpesvirus 5, AD169, MRC5, MRC-5 cells, Table 4
  EC50: 3.7 µg/mL (≈ 14.5 µM)
[5]; MRC-5 cells, Table 4
  TI50 (CD50 ÷ ED50): > 27
[5]; MRC-5 cells, DHPG 3.2 μg/ml, virus control 26.4 ± 5.2
  # Plaques: 15
[5]; MRC-5 cells, DHPG 10 μg/ml, virus control 26.4 ± 5.2
  # Plaques: 0.5
[5]; MRC-5 cells, DHPG 32 μg/ml, virus control 26.4 ± 5.2
  # Plaques: 0
[5]; MRC-5 cells, DHPG 100 μg/ml, virus control 26.4 ± 5.2
  # Plaques: 0
[6]; Caviid betaherpesvirus 2, GPE cells, Table 3, read-out: ED50 (the source's name)
  EC50: 18.4 µg/mL (≈ 72.1 µM)
[6]; DHPG 1.0 μg/ml
  Average CPE: 4.0
[6]; DHPG 3.2 μg/ml
  Average CPE: 4.0
[6]; DHPG 10 μg/ml
  Average CPE: 3.5
[6]; DHPG 32 μg/ml
  Average CPE: 0.7
[6]; DHPG 100 μg/ml
  Average CPE: 0
[6]; DHPG 320 μg/ml
  Average CPE: 0
[6]; DHPG 1000 μg/ml
  Average CPE: 0
[6]; GPE cells, Table 3
  TI50 (CD50 ÷ ED50): > 54
[7]
  CC50: > 1000 µg/mL
[8]; CV-1 cells, DHPG 3.2 μg/ml, virus control 70.25 ± 6.9
  # Plaques: 77
[8]; CV-1 cells, DHPG 10 μg/ml, virus control 70.25 ± 6.9
  # Plaques: 63
[8]; [14]
  inhibition at 3.2 µg/mL: 0%
  inhibition at 10 µg/mL: 10%
[8]; Human alphaherpesvirus 3, CV-1, read-out: ED50
  EC50: > 10 µg/mL
[8]; [15]
  inhibition at 0.32 µg/mL: 0%
  inhibition at 1 µg/mL: 0%
  inhibition at 3.2 µg/mL: 0%
  inhibition at 10 µg/mL: 62%
[8]; Human alphaherpesvirus 3, MRC5, read-out: ED50
  EC50: 8 µg/mL (≈ 31.3 µM)
[8]; MRC-5 cells, Table 9A
  TI50 (CD50 ÷ ED50): > 125
[8]; MRC-5 cells, DHPG 0.32 μg/ml, virus control 32.7 ± 9.3
  # Plaques: 24.5
[8]; MRC-5 cells, DHPG 1.0 μg/ml, virus control 32.7 ± 9.3
  # Plaques: 37
[8]; MRC-5 cells, DHPG 3.2 μg/ml, virus control 32.7 ± 9.3
  # Plaques: 25
[8]; MRC-5 cells, DHPG 10 μg/ml, virus control 32.7 ± 9.3
  # Plaques: 12.5
[9]; Table 4
  CC50: > 100 µg/mL
[9]; Table 6, previous data
  CC50: > 1000 µg/mL
[9]; Table 7, previous data
  CC50: > 1000 µg/mL
[9]; Table 9A, previous data
  CC50: > 1000 µg/mL

Source: patent publication US5321030A, “Creatine analogs having antiviral activity” (priority 1991, dated 1994)
